Assay results from ChEMBL document CHEMBL5634130, “Exploring the structural-activity relationship of hexahydropyrazino[1,2-d]pyrido[3,2-b][1,4]oxazine derivatives as potent and orally-bioavailable PARP7 inhibitors” (Eur J Med Chem, 2023).
pIC50: −log10 of the molar value. Converted amounts (≈) assume the structure as drawn. The source made the active and inactive calls. The calls are words filed in the database; no cut-off is given here.

Experiments:
[1] = target: T1, Protein mono-ADP-ribosyltransferase PARP12 (Homo sapiens, UniProt Q9H0J9); test: Inhibition of PARP12 (unknown origin)
T1 sequence (Q9H0J9 whole entry): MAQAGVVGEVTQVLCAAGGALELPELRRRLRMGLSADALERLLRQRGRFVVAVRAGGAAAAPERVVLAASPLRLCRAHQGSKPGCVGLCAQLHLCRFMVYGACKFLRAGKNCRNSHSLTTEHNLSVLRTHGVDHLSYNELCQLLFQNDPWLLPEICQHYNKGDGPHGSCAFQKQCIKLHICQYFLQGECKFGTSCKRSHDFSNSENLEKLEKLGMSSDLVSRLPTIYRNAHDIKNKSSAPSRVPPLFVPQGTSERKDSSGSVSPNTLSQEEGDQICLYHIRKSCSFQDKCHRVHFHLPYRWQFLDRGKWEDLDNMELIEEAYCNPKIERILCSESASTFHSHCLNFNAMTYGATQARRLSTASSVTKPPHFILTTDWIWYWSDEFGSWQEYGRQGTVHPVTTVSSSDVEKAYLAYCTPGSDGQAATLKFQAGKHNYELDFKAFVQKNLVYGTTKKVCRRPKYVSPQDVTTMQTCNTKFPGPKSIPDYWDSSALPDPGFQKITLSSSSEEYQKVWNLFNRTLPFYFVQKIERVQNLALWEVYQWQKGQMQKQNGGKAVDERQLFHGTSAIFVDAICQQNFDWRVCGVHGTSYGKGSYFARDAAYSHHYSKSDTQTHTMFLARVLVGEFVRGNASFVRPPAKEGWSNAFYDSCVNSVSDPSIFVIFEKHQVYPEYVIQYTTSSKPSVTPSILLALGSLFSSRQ

[2] = Thermodynamic solubility of compound at pH 6.5; assay type: physicochemical; details: buffer, read-out: Therm_solubility
[3] = Kinetic solubility of compound at pH 6.5; assay type: physicochemical; details: buffer, read-out: Kinetic_solubility
[4] = Half life in fasted Beagle dog at 10 mg/kg, po measured for 24 hrs by LC-MS analysis; assay type: ADME, organism-based, Canis lupus familiaris; details: in vivo
[5] = Kinetic solubility of compound at pH 2; assay type: physicochemical; details: buffer, read-out: Kinetic_solubility
[6] = Tmax in fasted Beagle dog at 10 mg/kg, po measured for 24 hrs by LC-MS analysis; assay type: ADME, organism-based, Canis lupus familiaris; details: in vivo
[7] = Kinetic solubility of compound at pH 7.4; assay type: physicochemical; details: buffer, read-out: Kinetic_solubility
[8] = Metabolic stability in dog liver microsomes assessed as intrinsic clearance preincubated for 5 mins followed by NADPH addition measured for 1 hr by LC-MS analysis; assay type: ADME, Canis lupus familiaris, Microsome; details: time 65 min, read-out: CLH
[9] = Apparent permeability across apical to basolateral side in MDCKII-MDR1 cells incubated for 2 hrs by LC-MS analysis; assay type: ADME, cell-based, Canis lupus familiaris; details: dog, MDCK-MDR1
[10] = AUC in fasted Beagle dog at 10 mg/kg, po measured for 24 hrs by LC-MS analysis; assay type: ADME, organism-based, Canis lupus familiaris; details: in vivo
[11] = Plasma protein binding in rat at 2 uM incubated for 1 hr by LC/MS analysis; assay type: ADME, cell-free; details: read-out: PPB (converted)
[12] = target: Cytochrome P450 2D6 (Homo sapiens, UniProt P10635); test: Inhibition of CYP2D6 in human liver microsomes using dextromethorphan as substrate preincubated for 10 mins followed by substrate addition measured for 30 mins by LC-MS analysis; assay type: ADME, Microsome
Cytochrome P450 2D6, sequence (P10635 whole entry): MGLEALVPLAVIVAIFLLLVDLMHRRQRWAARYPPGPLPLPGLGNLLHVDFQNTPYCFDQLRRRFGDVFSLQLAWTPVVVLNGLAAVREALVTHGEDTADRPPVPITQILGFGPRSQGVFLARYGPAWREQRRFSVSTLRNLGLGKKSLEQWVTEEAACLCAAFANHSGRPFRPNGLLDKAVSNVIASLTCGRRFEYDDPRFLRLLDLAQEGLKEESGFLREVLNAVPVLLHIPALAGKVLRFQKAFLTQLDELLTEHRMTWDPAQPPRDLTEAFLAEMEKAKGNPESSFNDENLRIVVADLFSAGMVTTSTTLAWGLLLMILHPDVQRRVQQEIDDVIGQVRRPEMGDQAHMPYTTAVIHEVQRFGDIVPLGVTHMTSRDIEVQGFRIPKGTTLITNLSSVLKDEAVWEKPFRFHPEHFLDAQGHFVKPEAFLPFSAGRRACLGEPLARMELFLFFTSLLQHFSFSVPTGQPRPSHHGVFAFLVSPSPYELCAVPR

[13] = Metabolic stability in monkey liver microsomes assessed as intrinsic clearance preincubated for 5 mins followed by NADPH addition measured for 1 hr by LC-MS analysis; assay type: ADME, Macaca mulatta, Microsome; details: rhesus monkey, time 65 min, read-out: CLH
[14] = target: Voltage-gated inwardly rectifying potassium channel KCNH2 (Homo sapiens, UniProt Q12809); test: Inhibition of hERG transfected in HEK293 cells at <10 uM by electrography; assay type: toxicity, cell-based; details: hek293, 10 µM
Voltage-gated inwardly rectifying potassium channel KCNH2, sequence (Q12809 whole entry): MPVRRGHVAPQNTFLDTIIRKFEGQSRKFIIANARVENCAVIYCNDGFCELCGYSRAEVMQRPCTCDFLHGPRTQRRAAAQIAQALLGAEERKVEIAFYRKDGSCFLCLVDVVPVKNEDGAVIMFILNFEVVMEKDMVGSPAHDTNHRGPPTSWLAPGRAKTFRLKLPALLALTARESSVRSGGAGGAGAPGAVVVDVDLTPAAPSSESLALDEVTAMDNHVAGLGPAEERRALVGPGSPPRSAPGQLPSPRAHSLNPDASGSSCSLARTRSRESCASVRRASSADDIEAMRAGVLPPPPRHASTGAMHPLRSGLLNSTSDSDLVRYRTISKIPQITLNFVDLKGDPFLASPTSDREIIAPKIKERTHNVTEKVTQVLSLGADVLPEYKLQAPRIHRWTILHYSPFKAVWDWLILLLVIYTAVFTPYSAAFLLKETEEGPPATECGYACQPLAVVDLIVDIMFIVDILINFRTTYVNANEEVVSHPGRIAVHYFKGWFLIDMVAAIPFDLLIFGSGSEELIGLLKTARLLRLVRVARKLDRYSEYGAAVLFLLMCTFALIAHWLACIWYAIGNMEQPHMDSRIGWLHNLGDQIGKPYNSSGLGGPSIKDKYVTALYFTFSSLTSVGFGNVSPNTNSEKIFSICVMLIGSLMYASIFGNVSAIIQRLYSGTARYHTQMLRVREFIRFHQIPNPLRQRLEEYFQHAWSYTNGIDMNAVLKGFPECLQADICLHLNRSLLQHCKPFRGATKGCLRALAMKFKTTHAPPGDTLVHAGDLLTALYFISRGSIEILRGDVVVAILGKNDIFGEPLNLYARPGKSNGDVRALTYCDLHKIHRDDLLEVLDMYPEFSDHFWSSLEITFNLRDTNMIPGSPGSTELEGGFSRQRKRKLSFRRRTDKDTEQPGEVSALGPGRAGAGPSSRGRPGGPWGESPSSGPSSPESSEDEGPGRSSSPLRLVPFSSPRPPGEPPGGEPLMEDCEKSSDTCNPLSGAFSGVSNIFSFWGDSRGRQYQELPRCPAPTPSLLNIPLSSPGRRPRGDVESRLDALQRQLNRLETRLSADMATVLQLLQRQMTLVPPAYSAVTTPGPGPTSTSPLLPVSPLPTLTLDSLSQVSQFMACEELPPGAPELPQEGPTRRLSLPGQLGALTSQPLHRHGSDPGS

[15] = Oral bioavailability in fasted Beagle dog at 10 mg/kg measured for 24 hrs by LC-MS analysis; assay type: ADME, organism-based, Canis lupus familiaris; details: in vivo
[16] = Efflux ratio of apparent permeability across basolateral to apical side over apical to basolateral side in MDCKII-MDR1 cells incubated for 2 hrs by LC-MS analysis; assay type: ADME, cell-based, Canis lupus familiaris; details: dog, MDCK-MDR1
[17] = Cmax in fasted ICR mouse at 10 mg/kg, po measured for 24 hrs by LC-MS analysis; assay type: ADME, organism-based; details: in vivo
[18] = Plasma protein binding in dog at 2 uM incubated for 1 hr by LC/MS analysis; assay type: ADME, cell-free, Canis lupus familiaris; details: read-out: PPB (converted)
[19] = Half life in fasted ICR mouse at 10 mg/kg, po measured for 24 hrs by LC-MS analysis; assay type: ADME, organism-based; details: in vivo
[20] = Half life in fasted ICR mouse at 2 mg/kg, iv measured for 24 hrs by LC-MS analysis; assay type: ADME, organism-based; details: in vivo
[21] = system: NCI-H1373; test: Antitumor activity against human NCI-H1373 cells xenografted in […] SCID mouse model assessed as tumor growth inhibition at 30 mg/kg, po administered everyday measured after 21 days relative to control; assay type: functional; details: NCI-H1373, 504 h, time 21 day, read-out: TGI
[22] = system: NCI-H1373; test: Antiproliferative activity against human NCI-H1373 cells assessed as inhibition of cell viability incubated for 4 days by luminescence based assay; details: NCI-H1373, 96 h
[23] = target: T2, Cytochrome P450 1A2 (Homo sapiens, UniProt P05177); test: Inhibition of CYP1A2 in human liver microsomes using phenacetin as substrate preincubated for 10 mins followed by substrate addition measured for 30 mins by LC-MS analysis; assay type: ADME, Microsome
T2 sequence (P05177 whole entry): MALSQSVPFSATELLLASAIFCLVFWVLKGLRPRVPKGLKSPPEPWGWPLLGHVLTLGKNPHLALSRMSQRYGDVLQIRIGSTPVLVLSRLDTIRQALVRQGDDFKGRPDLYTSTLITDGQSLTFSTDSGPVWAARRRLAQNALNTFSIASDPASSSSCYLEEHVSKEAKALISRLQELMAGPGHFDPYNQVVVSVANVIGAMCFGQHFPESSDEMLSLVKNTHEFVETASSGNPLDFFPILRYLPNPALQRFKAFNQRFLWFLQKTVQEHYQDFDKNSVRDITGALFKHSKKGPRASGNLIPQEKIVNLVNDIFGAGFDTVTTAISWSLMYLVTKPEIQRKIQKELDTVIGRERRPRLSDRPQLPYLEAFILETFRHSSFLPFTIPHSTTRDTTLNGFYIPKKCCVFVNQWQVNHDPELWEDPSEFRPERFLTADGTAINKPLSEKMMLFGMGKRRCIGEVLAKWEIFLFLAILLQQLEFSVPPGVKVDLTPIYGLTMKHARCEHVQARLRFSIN

[24] = Toxicity in […] SCID mouse model xenografted with human NCI-H1373 cells assessed as body weight loss at 30 mg/kg, po measured for 21 days; assay type: organism-based; details: in vivo, 504 h, time 21 day
[25] = Metabolic stability in mouse liver microsomes assessed as intrinsic clearance preincubated for 5 mins followed by NADPH addition measured for 1 hr by LC-MS analysis; assay type: ADME, Microsome; details: time 65 min, read-out: CLH
[26] = system: RAW264.7; test: Inhibition of PARP7 in mouse RAW264.7 cells assessed as increase in IFN-beta level incubated for 24 hrs by ELISA; assay type: cell-based

**Q.** What does the source list for O=C(CCOC[C@@H]1CCN1c1cn[nH]c(=O)c1C(F)(F)F)N1CCN2c3ncc(C(F)(F)F)cc3OC[C@@H]2C1?
**A.** pIC50 [1]: 6.44; solubility thermodynamic [2]: 113 µg/mL (≈ 201 µM); solubility kinetic [3]: 154 µM (≈ 86.6 µg/mL); t1/2 [4]: 216 min; solubility kinetic [5]: 166 µM (≈ 93.4 µg/mL); Tmax [6]: 24.6 min; solubility kinetic [7]: 158 µM (≈ 88.9 µg/mL); CLint scaled [8]: 9.1 mL/min/kg; Papp A→B at 2 h [9]: 0.202 ×10⁻⁶ cm/s; AUC [10]: 7860 ng·h/mL; fraction unbound at 1 h, 2 µM [11]: 0.044; pIC50 [12]: < 4.52; CLint scaled [13]: 79.2 mL/min/kg; inhibition (INH) [14]: Not Active; bioavailability [15]: 45.2%; efflux ratio at 2 h [16]: 16.3; Cmax [17]: 752 ng/mL; fraction unbound at 1 h, 2 µM [18]: 0.006; t1/2 [19]: 222 min; half-life [20]: 42 min; inhibition in vivo at 30 mg/kg [21]: 75.2%; pIC50 [22]: 8.39; pIC50 [23]: < 4.52; Activity [24]: Non-Toxic; CLint scaled [25]: 141 mL/min/kg; inhibition [26]: Active
